Here are results for eight molecules from doi:10.1101/2023.12.06.570349v1 (biorxiv, 2023).

Read-outs that look alike come from different tables or passages of the source.

The target of assay [1] is T1, H3R-453 (Homo sapiens, UniProt Q9Y5N1). Put plainly: cell-based. The following applies: HEK293-EPAC stably expressing H3R isoform, read-out: H3R-453 α.
In assay [2] the target is T2, H3R-445 (Homo sapiens, UniProt Q9Y5N1). Kind of assay: cell-based. The following applies: HEK293-EPAC stably expressing H3R isoform, read-out: H3R-445 α.
In assay [3] the target is T3, H3R-415 (Homo sapiens, UniProt Q9Y5N1). Kind of assay: cell-based. The following applies: HEK293-EPAC stably expressing H3R isoform, read-out: H3R-415 α.
Assay [4] addresses T4, H3R-365 (Homo sapiens, UniProt Q9Y5N1). Kind of assay: cell-based. The conditions noted are these: HEK293-EPAC stably expressing H3R isoform, read-out: H3R-365 α.
Assay [5] has as its target T3, H3R-415. Kind of assay: cell-based. Details: species or system HEK293-EPAC stably expressing H3R isoform. The conditions noted are these: HEK293-EPAC stably expressing H3R isoform, read-out: H3R-415 α.
Assay [6] concerns the target T5, H3R-373 (Homo sapiens, UniProt Q9Y5N1, INS445KMKKKTCL).
The target of assay [7] is T6, H3R-413 (Homo sapiens, UniProt Q9Y5N1, DEL274-305). Put plainly: cell-based. The following applies: HEK293-EPAC stably expressing H3R isoform, read-out: H3R-413 α. Details: species or system HEK293-EPAC stably expressing H3R isoform.
Assay [8] deals with T3, H3R-415. Kind of assay: biochemical.
In assay [9] the target is T1, H3R-453.
For assay [10], the target named is T2, H3R-445. Put plainly: cell-based. Details: species or system HEK293-EPAC stably expressing H3R isoform. The conditions noted are these: HEK293-EPAC stably expressing H3R isoform, read-out: H3R-445 α.
Assay [11] addresses T6, H3R-413. Put plainly: biochemical.
The target in assay [12] is T5, H3R-373. Put plainly: cell-based. Details: species or system HEK293-EPAC stably expressing H3R isoform. The following applies: HEK293-EPAC stably expressing H3R isoform, read-out: H3R-373 α.
Assay [13] concerns the target T6, H3R-413. Put plainly: cell-based. Details: species or system HEK293-EPAC stably expressing H3R isoform.
Assay [14] concerns the target T1, H3R-453. Put plainly: cell-based. The following applies: HEK293-EPAC stably expressing H3R isoform, read-out: H3R-453 α. Details: species or system HEK293-EPAC stably expressing H3R isoform.
The target in assay [15] is T4, H3R-365. Put plainly: biochemical.
The target in assay [16] is T4, H3R-365. Put plainly: cell-based. Details: species or system HEK293-EPAC stably expressing H3R isoform. The conditions noted are these: HEK293-EPAC stably expressing H3R isoform, read-out: H3R-365 α.
Assay [17] addresses T2, H3R-445. Put plainly: biochemical.
Assay [18] addresses T1, H3R-453. Details: species or system HEK293-EPAC stably expressing H3R isoform. The conditions noted are these: agonist.
Assay [19] has as its target T2, H3R-445. Kind of assay: cell-based. On the set-up: species or system HEK293-EPAC stably expressing H3R isoform.
Assay [20] concerns the target T3, H3R-415. Kind of assay: cell-based. On the set-up: species or system HEK293-EPAC stably expressing H3R isoform.
The target in assay [21] is T5, H3R-373. Details: species or system HEK293-EPAC stably expressing H3R isoform. The conditions noted are these: agonist.
For assay [22], the target named is T4, H3R-365. Kind of assay: cell-based. On the set-up: species or system HEK293-EPAC stably expressing H3R isoform.
The target of assay [23] is T3, H3R-415. Put plainly: cell-based. On the set-up: species or system HEK293-EPAC stably expressing H3R isoform. The source holds these as a separate data set.
Assay [24] concerns the target T3, H3R-415. Put plainly: cell-based. Details: species or system HEK293-EPAC stably expressing H3R isoform. The source holds these as a separate data set.
Assay [25] addresses T5, H3R-373. On the set-up: species or system HEK293-EPAC stably expressing H3R isoform. The conditions noted are these: inverse agonism, constitutive signaling; antagonist.
For assay [26], the target named is T4, H3R-365. Put plainly: cell-based. On the set-up: species or system HEK293-EPAC stably expressing H3R isoform. This is another data set of the same source.
Assay [27] deals with T2, H3R-445. Put plainly: cell-based. Details: species or system HEK293-EPAC stably expressing H3R isoform. The source holds these as a separate data set.
In assay [28] the target is T2, H3R-445. Kind of assay: cell-based. On the set-up: species or system HEK293-EPAC stably expressing H3R isoform. The source holds these as a separate data set.
The target in assay [29] is T2, H3R-445. Put plainly: biochemical. This is another data set of the same source.
Assay [30] deals with T4, H3R-365. Kind of assay: biochemical. This is another data set of the same source.
Assay [31] addresses T6, H3R-413. Put plainly: biochemical. This is another data set of the same source.
Assay [32] deals with T5, H3R-373. The following applies: […] Tris-HCl pH […] °C, […] h; labelled compound.
Assay [33] deals with T3, H3R-415. Kind of assay: biochemical. This is another data set of the same source.
The target in assay [34] is T1, H3R-453. The conditions noted are these: […] Tris-HCl pH […] °C, […] h; labelled compound.
[35] abbreviates: inverse agonism, pitolisant = -1, antagonist.

Consider `C[C@@H](N)Cc1cnc[nH]1` [RAMH, (2R)-1-(3H-imidazol-4-yl)propan-2-amine], for which the Emax at H3R-453 [1] is 140 ± 10%; at H3R-445 [2], 100%; at H3R-415 [3], 110 ± 40%; on H3R-365 [4], 100 ± 20%.

As for `NCCCCCc1c[nH]cn1` [impentamine, 5-(3H-imidazol-4-yl)pentan-1-amine], the Emax at H3R-415 [5] was determined as 50 ± 10%; at H3R-413 [7], 50 ± 10%; at H3R-445 [10], 60 ± 20%; at H3R-373 [12], 70 ± 10%; on H3R-453 [14], 50 ± 10%; at H3R-365 [16], 100 ± 30%. For the same molecule, the Ki on H3R-373 [6] is 1.58 nM; at H3R-415 [8], 3.98 nM; on H3R-453 [9], 3.16 nM; on H3R-413 [11], 3.98 nM; at H3R-365 [15], 2 nM; on H3R-445 [17] it was 2.51 nM. In addition, on H3R-413 [13], the response was half-maximal at 6.31 nM (EC50).

As to `CCCNC1CN(c2ccnc(N)n2)C1` [VUF16839, 4-(3-(Propylamino)azetidin-1-yl)pyrimidin-2-amine], the Emax was 50 ± 10% at H3R-415 [5]; 80 ± 20% on H3R-413 [7]; 90% on H3R-445 [10]; 60 ± 20% at H3R-373 [12]; 90 ± 30% at H3R-453 [14]; 70 ± 20% on H3R-365 [16]. Besides, the Ki on H3R-373 [6] is 0.398 nM; on H3R-413 [11], 2 nM. Also, on H3R-453 [18], the “H3R-453 pEC50” value stood at 8.0 ± 0.1 M. The EC50 on H3R-445 [19] was 1 nM.

With `c1ccc(COCCCc2c[nH]cn2)cc1` [proxyfan, 4-[3-(phenylmethoxy)propyl]-3H-imidazole], the Emax on H3R-415 [5] was determined as 70 ± 10%; on H3R-413 [7], 90 ± 10%; on H3R-445 [10], 90 ± 10%; on H3R-373 [12], 80 ± 10%; on H3R-453 [14] it was 100 ± 20%; on H3R-365 [16] it was 100 ± 10%. Besides, the Ki was 1 nM at H3R-373 [6] and 5.01 nM at H3R-413 [11]. In addition, at H3R-453 [18], the “H3R-453 pEC50” value is 7.2 ± 0.4 M. Further, the EC50 is 15.8 nM at H3R-415 [20], 31.6 nM on H3R-413 [13] and 7.94 nM at H3R-445 [19]. The “H3R-373 pEC50” value at H3R-373 [21] was found to be 8.0 ± 0.0 M.

As to `CCNC(=O)C1CC(F)(c2ccc(CN3CCCC3)c(F)c2)C1` (centres unmarked) [PF-3654746, N-ethyl-3-fluoro-3-[3-fluoro-4-(pyrrolidin-1-ylmethyl)phenyl]cyclobutane-1-carboxamide], the Ki at H3R-373 [6] is 126 nM; at H3R-413 [11], 5.01 nM. Also, the Emax at H3R-365 [22] (HEK293-EPAC stably expressing H3R isoform, read-out: H3R-365 α) is -100 ± 10%; on H3R-415 [23] (HEK293-EPAC stably expressing H3R isoform, read-out: H3R-415 α), -110 ± 30%; on H3R-445 [27] (HEK293-EPAC stably expressing H3R isoform, read-out: H3R-445 α) it was -120 ± 40%. Moreover, the EC50 at H3R-415 [24] is 0.501 nM; on H3R-365 [26], 1 nM. The “H3R-373 pEC50” value at H3R-373 [25] was 9.1 ± 0.4 M.

On to `CN(C)CCCCCc1c[nH]cn1` [dimethyl-impentamine, 5-(3H-imidazol-4-yl)-N,N-dimethylpentan-1-amine], for which the Emax on H3R-415 [5] is 40 ± 10%; on H3R-413 [7] it was 50 ± 20%; on H3R-445 [10], 60 ± 20%; at H3R-373 [12], 70 ± 10%; at H3R-365 [16], 100 ± 20%. For the same molecule, the Ki was 20 nM on H3R-373 [6]; 31.6 nM at H3R-415 [8]; 31.6 nM at H3R-413 [11]; 20 nM on H3R-365 [15]; 25.1 nM on H3R-445 [17]. This molecule had an EC50 at H3R-413 [13] of 79.4 nM. Also, the “H3R-373 pEC50” value on H3R-373 [21] came to 7.9 ± 0.4 M.

As to `O=C(c1ccc(CN2CCOCC2)cc1)N1CCN(C2CC2)CC1` [bavisant, (4-Cyclopropyl-piperazin-1-yl)-(4-morpholin-4-ylmethyl-phenyl)-methanone], the Ki on H3R-373 [6] is 79.4 nM; on H3R-413 [11], 2.51 nM. Moreover, the “H3R-365 α” value at H3R-365 [22] (setting [35]) is recorded as -1.0 ± 0.0%. Besides, at H3R-415 [23] (setting [35]), the “H3R-415 α” value is -0.9 ± 0.0%. In addition, the EC50 is 1 nM on H3R-445 [28], 0.794 nM at H3R-415 [24] and 3.98 nM on H3R-365 [26]. At H3R-445 [27] (setting [35]), the “H3R-445 α” value is -1.0 ± 0,3%.

On to `CNCCc1c[nH]cn1` [[3H]NAMH], for which the Kd on H3R-445 [29] was 1.26 nM; on H3R-365 [30], 0.501 nM; at H3R-413 [31] it was 1.26 nM; on H3R-415 [33] it was 1.26 nM. Also, the figures for the pKD on H3R-373 [32] and at H3R-453 [34] were 9.6 ± 0.1 and 9.0 ± 0.1, respectively.

By Ki is commonly meant a measure of affinity in units of concentration, obtained from inhibition or displacement. Low values mean a stronger hold on the target, high ones a looser hold on the target. In general, EC50 refers to the concentration giving half of the maximal effect. A higher EC50 goes with a need for much substance. What is called Kd is the concentration at which binding is half-saturated. A word on the pKD: it is the negative decadic logarithm of the KD, by convention in mol/L.
